Format in all cases: in vivo, rhesus macaques
In experiment [1] the test system is SIVmac239M2. The experiment in a line: Cell-associated vDNA in PBMC, colorectal biopsies and lymph nodes. How it is done:
(§1) Blood was collected in EDTA tubes and plasma was separated by density gradient centrifugation and used for the determination of plasma VL by SIVgag qRT-PCR at NIRC or at Leidos (Quantitative Molecular Diagnostics Core, AIDS and Cancer Virus Program Frederick National Laboratory). Tissue VL from snap frozen PBMC pellets, colorectal biopsies and LN FNA were performed as described in (77). SIV-TILDA was performed on freshly stored PBMC before cycle 1 and at the end of cycle 4 of galunisertib by Accelevir, Baltimore, MD.

For experiment [2], the system named is SIVmac239 gag and env peptides. The experiment in a line: Anti-SIV T cell responses, intracellular cytokine staining. Conditions: before vs after treatment. How it is done: Frozen PBMC collected right before the first galunisertib administration and right after were thawed in AIM V medium (Thermo Fisher) plated on a plate pre-coated with 2.5 μg/ml goat anti mouse (GAM) IgGs and cross linked with 10 μg/ml anti-CD28 and anti-CD49d antibodies (Sigma Aldrich). Cells were stimulated either with SIVMAC239 GAG peptide pool (2 μg/ml) or with SIVMAC239 ENV peptide pool (2 μg/ml AIDS reagents program, Division of AIDS, NIAID, NIH) or the same volume of DMSO as baseline control. Pooled cells stimulated with 1 μg/ml PMA/Ionomycin were used a positive activation control. One hour later 10 μg/ml BFA and monensin (GolgiStop, BD Biosciences) were added to each well. After 5 hours, cells were transferred to a FACS plate and stained with the LIVE/DEAD Aqua viability dye (Thermo Fisher Scientific) and antibodies against cell surface and cytokines (Table 2).

For experiment [3], the system named is SIVmac239M2. The experiment in a line: Plasma viral load, four 2-week galunisertib cycles. How it is done:
Rhesus macaques (n=8 main study+4 separate non-concomitant study) were infected with 300 TCID50 of the barcoded SIVmac239M2 stock intravenously and ART (Tenofovir [PMPA], Emtricitabine [FTC] and Dolutegravir [DTG]) was initiated on week 6 pi. Galunisertib treatment was initiated on week 35 p.i. Powder (MedChemExpress—MCE, NJ, USA) was dissolved in water and given orally in a treat twice daily at 20 mg/kg. 4 cycles of 2 weeks daily treatment with 2 weeks wash out period were performed. Macaques 08M156 and A6X003 were given the rhesus recombinant antibody (rhesus/human chimeric) anti-PD1 antibody [NIVOR4LALA; comprising silenced rhesus IgG4k […] constant regions and variable regions from anti-human PD-1, nivolumab; non-human primates reagents resource, NHPRR. Blood viral load was monitored biweekly before and during ART and every 3-4 days during Galunisertib treatment. Colorectal biopsies and LN FNA were collected before and after galunisertib treatment. ART was terminated 3 weeks after the last galunisertib dose and euthanasia and necropsy to harvest tissues were performed at week 58 post infection, tissues samples were flash frozen, fixed in OCT or Z-fix.
as §1

Experiment [4] relates to SIVmac239 gag, pol and env peptides. The experiment in a line: SIV-specific responses, FluoroSpot of PBMC. The procedure: Cytokines in plasma (at 1:2 dilution) were measured using the NHP Cytokine 24-Plex kit by Meso Scale Diagnostics (MSD) according to manufacturer instructions. Frozen PBMC collected at week 6 post-infection (pre-ART), right before the first galunisertib administration (BC1), at the end of cycle 1 (AC1) and at the end of cycle 3 (AC3) were thawed in AIM V medium (ThermoFisher) with benzonase (Sigma) and plated on a FluoroSpot (CTL) plate pre-activated with 70% Ethanol and IFN-γ, TNF-α and IL-2 capture solution. Gag, pol, and env 15-mer peptides (NIH AIDS Reagents program) were prepared at two times the final concentration of 2.5 μg/ml with co-stimulatory reagents anti-CD28 10 μg/ml and anti-CD49d 10 μg/ml and added to the cells in CTL-Test™ Medium. Parallel positive […] control of PMA (20 ng/ml) and ionomycin (200 ng/mL) or mock DMSO solution was also plated with the stimulatory reagents. PBMCs were added at 300,000 cells per well. After 24 hrs, the plate was washed, and incubated with detection and tertiary solutions and shipped to CTL for scanning and QC.

Take `Cc1cccc(-c2nn3c(c2-c2ccnc4ccc(C(N)=O)cc24)CCC3)n1` [galunisertib, Galunisertib]: the “cell-associated SIV DNA in lymph nodes, gut and PBMC” value in the experiment with SIVmac239M2 [1] (8 macaques, four 2-week cycles) is “Half to 1 Log decrease”. Also, the “CA-vDNA decrease in gut, median” value in the experiment with SIVmac239M2 [1] (BC1 (week 35 pi) vs AC4 (week 49 pi)) came out at 0.77 folds. Moreover, in the experiment with SIVmac239M2 [1] (BC1 vs AC3), the “CA-vDNA decrease in PBMC, range” value is 0.28-0.88 folds. In addition, the “CA-vDNA decrease in gut, range” value in the experiment on SIVmac239M2 [1] (BC1 vs AC4) is reported as 0.33-0.94 folds. Further, the “CA-vDNA decrease in PBMC, median” value in the experiment with SIVmac239M2 [1] (BC1 vs end of cycle 3 (AC3)) is 0.58 folds. Also, the “cell-associated viral DNA in lymph nodes and colorectal biopsies” value in the experiment with SIVmac239M2 [1] (Example 5, end of cycle 4 vs before Gal) is “decreased by over a Log”. In addition, in the experiment on SIVmac239M2 [1] (right axillary LN, BC1 vs AC4), the “CA-vDNA decrease in LN, median” value was determined as 0.93 folds and the “CA-vDNA decrease in LN, range” value is reported as 0.33-0.98 folds. In addition, in experiment [2], the “frequency of cells producing multiple cytokines” value is given as “no increase”. Moreover, the “frequency of IFN-γ producing CD4 and CD8 T cells” value in experiment [2] (gag and env peptides stimulation) is “significant increase”. In addition, the “macaques with increased pVL after start of treatment” value in the experiment on SIVmac239M2 [3] (20 mg/Kg twice daily orally, 4 cycles) is listed as 7 out of 8. Further, the “increases in pVL in fully suppressed macaques” value with SIVmac239M2 [3] (08M171, A8R095 and A8L057) was > 102 copies/ml. Further, the “viral rebound after ART interruption” value in the experiment with SIVmac239M2 [3] (ART discontinued 3 weeks after last dose, 6 weeks follow-up) is recorded as “One macaque did not rebound”. For the same compound, in the experiment on SIVmac239M2 [3] (Example 5, 7 macaques, 20 mg/kg twice per day, four 2-weeks cycles), the “macaques with viral blips above 100 copies/ml in blood” value is 5 out of the 7. For the same compound, in the experiment with SIVmac239M2 [3] (macaques with several peaks), the “pVL peaks during treatment” value is recorded as “up to 103 copies/ml”. In the experiment on SIVmac239M2 [3] (undetectable for over 5 weeks before), the “pVL blips in A8T010 and A8R095 after treatment initiation” value is reported as “up to 102 copies/ml”. In addition, the IL-2 release entry in experiment [4] (end of 3rd cycle) was “remained unchanged”. The “IFN-γ secretion, SIV-specific and non-specific” value in experiment [4] (end of the 3rd cycle vs BC1) was “significant increase”. The TNF-α release entry in experiment [4] (in response to Gag and non-specifically) is given as “increased”.
